pIC50: −log10 of the molar value. In brackets after ≈: the same amount, converted by molar mass.
What was measured:
Moraxella catarrhalis = experiment: MIC50/90 against Moraxella catarrhalis; format: cell-based; conditions: n = 10
D83N = experiment: MIC against D83N mutant; format: cell-based
[1] = test system: Burkholderia pseudomallei; experiment: microbe, parasite or virus in culture; format: cell-based
In vitro micronucleus = format: cell-based
[2] = test system: Acinetobacter baumannii 19606; experiment: MIC against Acinetobacter baumannii 19606; format: cell-based
Escherichia coli 25922 = experiment: MIC against Escherichia coli 25922; format: cell-based
S. aureus 29213 = experiment: MIC against S. aureus 29213; format: cell-based; conditions: Staphylococcus aureus
Staphylococcus aureus = experiment: MIC50/90 against Staphylococcus aureus isolates; format: cell-based; conditions: n = 30 (147), n = 100 (284, 319, gepotidacin)
FQ-R MRSA = experiment: MIC against FQ-R MRSA isolates; format: cell-based, Staphylococcus aureus; conditions: Staphylococcus aureus, MRSA; n = 15 (147), n = 25 (284, 319, gepotidacin)
K562 = K562 cytotoxicity; format: cell-based; conditions: Homo sapiens
[3] = Permeability: MDCK II A->B; format: in vitro ADME; conditions: dog
[4] = Permeability: CACO-2 A->B; format: in vitro ADME; conditions: human, Caco-2
Francisella tularensis = experiment: microbe, parasite or virus in culture; format: cell-based

COc1ccc2ncc(F)c(C[C@H](O)[C@H]3OC[C@H](NCc4cnc5c(n4)NC(=O)CO5)CO3)c2n1 [Compound 284, 6-(((2-((S)-2-(3-fluoro-6-methoxy-1,5-naphthyridin-4-yl)-1-hydroxyethyl)-trans-1,3-dioxan-5-yl)amino)methyl)-2H-pyrazino[2,3-b][1,4]oxazin-3(4H)-one]
Dog plasma protein binding (% unbound): 20 % unbound
MIC50 (Moraxella catarrhalis): 0.12 mg/L (≈ 0.247 µM)
MIC90 (Moraxella catarrhalis): 0.25 mg/L (≈ 0.514 µM)
MIC (D83N): 1 to 2 mg/L (≈ 2.06 to 4.11 µM)
MIC50 ([1]; read-out: Burkholderia pseudomallei MIC50 (μg/mL)): 32 µg/mL (≈ 65.8 µM)
MIC90 ([1]; read-out: Burkholderia pseudomallei MIC90 (μg/mL)): 64 µg/mL (≈ 132 µM)
In vitro micronucleus (In vitro micronucleus): Pos. at high
MIC [2]: 8 to 16 mg/L (≈ 16.4 to 32.9 µM)
Escherichia coli 25922 MIC (Escherichia coli 25922): 16 mg/L
MIC (S. aureus 29213): 0.125 to 0.25 mg/L (≈ 0.257 to 0.514 µM)
MIC50 (Staphylococcus aureus): 0.12 mg/L (≈ 0.247 µM)
MIC90 (Staphylococcus aureus): 0.25 mg/L (≈ 0.514 µM)
MIC90 (FQ-R MRSA): 0.12 mg/L (≈ 0.247 µM)
pIC50 (K562): < 3.70
Papp A→B [3]: 7.4 nm/s
Papp A→B [4]: 15 nm/s
MIC50 (Francisella tularensis; read-out: Francisella tularensis MIC50 (μg/mL)): 0.5 µg/mL (≈ 1.03 µM)
MIC90 (Francisella tularensis; read-out: Francisella tularensis MIC90 (μg/mL)): 4 µg/mL (≈ 8.22 µM)

Source: patent US20260226077A1, “TYPE II TOPOISOMERASE INHIBITORS AND METHODS OF MAKING AND USING THEREOF” (Ohio State Innovation Foundation, priority 2023, published 2026)
